From ChEMBL document CHEMBL4219190, “Studies on synthesis of novel pyrido[2,3-d]pyrimidine derivatives, evaluation of their antimicrobial activity and molecular docking” (Bioorg Med Chem Lett, 2018)
Values after ≈ are worked out from the molar mass of the structure shown. Active and inactive are the calls of the source. No cut-off for these calls is given here.

Key:
Nakaseomyces glabratus [1] = assay: Fungicidal activity against Candida glabrata MTCC 3019 incubated for 24 hrs followed by transfer of microbial suspension to Sabouraud dextrose agar plates and measured after 24 hrs post transfer; assay type: functional; conditions: MTCC 3019, 24 h
Nakaseomyces glabratus [2] = assay: Antifungal activity against Candida glabrata MTCC 3019 after 24 hrs by well diffusion method; assay type: functional; conditions: MTCC 3019, 24 h
Candida albicans [3] = assay: Fungicidal activity against Candida albicans MTCC 7315 incubated for 24 hrs followed by transfer of microbial suspension to Sabouraud dextrose agar plates and measured after 24 hrs post transfer; assay type: functional; conditions: MTCC 7315, 24 h
Candida albicans [4] = assay: Fungicidal activity against Candida albicans MTCC 183 incubated for 24 hrs followed by transfer of microbial suspension to Sabouraud dextrose agar plates and measured after 24 hrs post transfer; assay type: functional; conditions: MTCC 183, 24 h
Candida albicans [5] = assay: Fungicidal activity against Candida albicans MTCC 3958 incubated for 24 hrs followed by transfer of microbial suspension to Sabouraud dextrose agar plates and measured after 24 hrs post transfer; assay type: functional
Pseudomonas aeruginosa [6] = assay: Antibiofilm activity against Pseudomonas aeruginosa MTCC 2453 after 24 hrs by crystal violet staining-based assay; assay type: functional, organism-based; conditions: Pseudomonas aeruginosa, MTCC 2453, 24 h; read-out: IC50
Pseudomonas aeruginosa [7] = assay: Bactericidal activity against Pseudomonas aeruginosa MTCC 2453 incubated for 24 hrs followed by transfer of microbial suspension to Mueller Hinton agar plates and measured after 24 hrs post transfer; assay type: functional; conditions: MTCC 2453, 24 h
Pichia sporocuriosa [8] = assay: Fungicidal activity against Issatchenkia hanoiensis MTCC 4755 incubated for 24 hrs followed by transfer of microbial suspension to Sabouraud dextrose agar plates and measured after 24 hrs post transfer; assay type: functional; conditions: MTCC 4755, 24 h
Candida albicans [9] = assay: Antifungal activity against Candida albicans MTCC 3018 after 24 hrs by well diffusion method; assay type: functional
Micrococcus luteus [10] = assay: Bactericidal activity against Micrococcus luteus MTCC 2470 incubated for 24 hrs followed by transfer of microbial suspension to Mueller Hinton agar plates and measured after 24 hrs post transfer; assay type: functional; conditions: MTCC 2470, 24 h
Micrococcus luteus [11] = assay: Antibacterial activity against Micrococcus luteus MTCC 2470 after 24 hrs by well diffusion method; assay type: functional; conditions: MTCC 2470, 24 h
Candida albicans [12] = assay: Antifungal activity against Candida albicans MTCC 854 after 24 hrs by well diffusion method; assay type: functional; conditions: MTCC 854, 24 h
Candida albicans [13] = assay: Antifungal activity against Candida albicans MTCC 183 after 24 hrs by well diffusion method; assay type: functional; conditions: MTCC 183, 24 h
Escherichia coli [14] = assay: Antibacterial activity against Escherichia coli MTCC 739 after 24 hrs by well diffusion method; assay type: functional; conditions: MTCC 739, 24 h
Candida parapsilosis [15] = assay: Antifungal activity against Candida parapsilosis MTCC 1744 after 24 hrs by well diffusion method; assay type: functional; conditions: MTCC 1744, 24 h
[Candida] aaseri [16] = Antifungal activity against Candida aaseri MTCC 1962 after 24 hrs by well diffusion method; assay type: functional; conditions: Yamadazyma aaseri, MTCC 1962, 24 h
Candida albicans [17] = assay: Antifungal activity against Candida albicans MTCC 1637 after 24 hrs by well diffusion method; assay type: functional; conditions: MTCC 1637, 24 h
Raoultella planticola [18] = assay: Antibacterial activity against Klebsiella planticola MTCC 530 after 24 hrs by well diffusion method; assay type: functional; conditions: MTCC 530, 24 h
Candida albicans [19] = assay: Fungicidal activity against Candida albicans MTCC 854 incubated for 24 hrs followed by transfer of microbial suspension to Sabouraud dextrose agar plates and measured after 24 hrs post transfer; assay type: functional; conditions: MTCC 854, 24 h
Pichia kudriavzevii [20] = assay: Fungicidal activity against Candida krusei MTCC 3020 incubated for 24 hrs followed by transfer of microbial suspension to Sabouraud dextrose agar plates and measured after 24 hrs post transfer; assay type: functional
Staphylococcus aureus [21] = assay: Bactericidal activity against Staphylococcus aureus MTCC 96 incubated for 24 hrs followed by transfer of microbial suspension to Mueller Hinton agar plates and measured after 24 hrs post transfer; assay type: functional; conditions: MTCC 96, 24 h
Pichia kudriavzevii [22] = assay: Antifungal activity against Candida krusei MTCC 3020 after 24 hrs by well diffusion method; assay type: functional
Staphylococcus aureus [23] = assay: Antibacterial activity against Staphylococcus aureus MTCC 96 after 24 hrs by well diffusion method; assay type: functional; conditions: MTCC 96, 24 h
Staphylococcus aureus [24] = assay: Antibiofilm activity against Staphylococcus aureus MTCC 96 after 24 hrs by crystal violet staining-based assay; assay type: functional, organism-based; conditions: Staphylococcus aureus, MTCC 96, 24 h; read-out: IC50
Staphylococcus aureus [25] = assay: Bactericidal activity against Staphylococcus aureus MLS16 MTCC 2940 incubated for 24 hrs followed by transfer of microbial suspension to Mueller Hinton agar plates and measured after 24 hrs post transfer; assay type: functional; conditions: MLS16 MTCC 2940, 24 h
Raoultella planticola [26] = assay: Antibiofilm activity against Klebsiella planticola MTCC 530 after 24 hrs by crystal violet staining-based assay; assay type: functional, organism-based; conditions: Klebsiella planticola, MTCC 530, 24 h; read-out: IC50
Candida parapsilosis [27] = assay: Fungicidal activity against Candida parapsilosis MTCC 1744 incubated for 24 hrs followed by transfer of microbial suspension to Sabouraud dextrose agar plates and measured after 24 hrs post transfer; assay type: functional; conditions: Lodderomyces parapsilosis, MTCC 1744, 24 h
Candida albicans [28] = assay: Antifungal activity against Candida albicans MTCC 3017 after 24 hrs by well diffusion method; assay type: functional; conditions: MTCC 3017, 24 h
Escherichia coli [29] = assay: Bactericidal activity against Escherichia coli MTCC 739 incubated for 24 hrs followed by transfer of microbial suspension to Mueller Hinton agar plates and measured after 24 hrs post transfer; assay type: functional; conditions: MTCC 739, 24 h
Candida albicans [30] = assay: Fungicidal activity against Candida albicans MTCC 4748 incubated for 24 hrs followed by transfer of microbial suspension to Sabouraud dextrose agar plates and measured after 24 hrs post transfer; assay type: functional
Candida albicans [31] = assay: Fungicidal activity against Candida albicans MTCC 1637 incubated for 24 hrs followed by transfer of microbial suspension to Sabouraud dextrose agar plates and measured after 24 hrs post transfer; assay type: functional; conditions: MTCC 1637, 24 h
Bacillus subtilis [32] = assay: Bactericidal activity against Bacillus subtilis MTCC 121 incubated for 24 hrs followed by transfer of microbial suspension to Mueller Hinton agar plates and measured after 24 hrs post transfer; assay type: functional; conditions: MTCC 121, 24 h
Candida albicans [33] = assay: Antifungal activity against Candida albicans MTCC 7315 after 24 hrs by well diffusion method; assay type: functional; conditions: MTCC 7315, 24 h
[Candida] aaseri [34] = Fungicidal activity against Candida aaseri MTCC 1962 incubated for 24 hrs followed by transfer of microbial suspension to Sabouraud dextrose agar plates and measured after 24 hrs post transfer; assay type: functional; conditions: Yamadazyma aaseri, MTCC 1962, 24 h
Bacillus subtilis [35] = assay: Antibacterial activity against Bacillus subtilis MTCC 121 after 24 hrs by well diffusion method; assay type: functional; conditions: MTCC 121, 24 h
Staphylococcus aureus [36] = assay: Antibacterial activity against Staphylococcus aureus MLS16 MTCC 2940 after 24 hrs by well diffusion method; assay type: functional; conditions: MLS16 MTCC 2940, 24 h
Bacillus subtilis [37] = assay: Antibiofilm activity against Bacillus subtilis MTCC 121 after 24 hrs by crystal violet staining-based assay; assay type: functional, organism-based; conditions: Bacillus subtilis, MTCC 121, 24 h; read-out: IC50
Candida albicans [38] = assay: Fungicidal activity against Candida albicans MTCC 3017 incubated for 24 hrs followed by transfer of microbial suspension to Sabouraud dextrose agar plates and measured after 24 hrs post transfer; assay type: functional; conditions: MTCC 3017, 24 h
Candida albicans [39] = assay: Fungicidal activity against Candida albicans MTCC 227 incubated for 24 hrs followed by transfer of microbial suspension to Sabouraud dextrose agar plates and measured after 24 hrs post transfer; assay type: functional; conditions: MTCC 227, 24 h
Candida albicans [40] = assay: Fungicidal activity against Candida albicans MTCC 3018 incubated for 24 hrs followed by transfer of microbial suspension to Sabouraud dextrose agar plates and measured after 24 hrs post transfer; assay type: functional
Raoultella planticola [41] = assay: Bactericidal activity against Klebsiella planticola MTCC 530 incubated for 24 hrs followed by transfer of microbial suspension to Mueller Hinton agar plates and measured after 24 hrs post transfer; assay type: functional; conditions: MTCC 530, 24 h
Candida albicans [42] = assay: Antifungal activity against Candida albicans MTCC 4748 after 24 hrs by well diffusion method; assay type: functional
Staphylococcus aureus [43] = assay: Antibiofilm activity against Staphylococcus aureus MLS16 MTCC 2940 after 24 hrs by crystal violet staining-based assay; assay type: functional, organism-based; conditions: Staphylococcus aureus, MLS16 MTCC 2940, 24 h; read-out: IC50
Pichia sporocuriosa [44] = assay: Antifungal activity against Issatchenkia hanoiensis MTCC 4755 after 24 hrs by well diffusion method; assay type: functional; conditions: MTCC 4755, 24 h
Candida albicans [45] = assay: Antifungal activity against Candida albicans MTCC 227 after 24 hrs by well diffusion method; assay type: functional; conditions: MTCC 227, 24 h
Candida albicans [46] = assay: Antifungal activity against Candida albicans MTCC 3958 after 24 hrs by well diffusion method; assay type: functional
Pseudomonas aeruginosa [47] = assay: Antibacterial activity against Pseudomonas aeruginosa MTCC 2453 after 24 hrs by well diffusion method; assay type: functional; conditions: MTCC 2453, 24 h

O=C(c1nc(-c2ccccc2)c2c(C(F)(F)F)cc(-c3ccccc3)nc2n1)N1CCN(CCO)CC1
MFC (Nakaseomyces glabratus [1]): 31.2 µg/mL (≈ 61.5 µM)
MIC (Nakaseomyces glabratus [2]): 15.6 µg/mL (≈ 30.7 µM)
MFC (Candida albicans [3]): 62.5 µg/mL (≈ 123 µM)
MFC (Candida albicans [4]): 7.8 µg/mL (≈ 15.4 µM)
MFC (Candida albicans [5]): inactive
IC50 (Pseudomonas aeruginosa [6]): 10.8 µg/mL (≈ 21.3 µM)
MBC (Pseudomonas aeruginosa [7]): 31.2 µg/mL (≈ 61.5 µM)
MFC (Pichia sporocuriosa [8]): 31.2 µg/mL (≈ 61.5 µM)
MIC (Candida albicans [9]): inactive
MBC (Micrococcus luteus [10]): 31.2 µg/mL (≈ 61.5 µM)
MIC (Micrococcus luteus [11]): 15.6 µg/mL (≈ 30.7 µM)
MIC (Candida albicans [12]): 7.8 µg/mL (≈ 15.4 µM)
MIC (Candida albicans [13]): 3.9 µg/mL (≈ 7.68 µM)
MIC (Escherichia coli [14]): 15.6 µg/mL (≈ 30.7 µM)
MIC (Candida parapsilosis [15]): 31.2 µg/mL (≈ 61.5 µM)
MIC ([Candida] aaseri [16]): 31.2 µg/mL (≈ 61.5 µM)
MIC (Candida albicans [17]): 15.6 µg/mL (≈ 30.7 µM)
MIC (Raoultella planticola [18]): 15.6 µg/mL (≈ 30.7 µM)
MFC (Candida albicans [19]): 15.6 µg/mL (≈ 30.7 µM)
MFC (Pichia kudriavzevii [20]): inactive
MBC (Staphylococcus aureus [21]): 15.6 µg/mL (≈ 30.7 µM)
MIC (Pichia kudriavzevii [22]): inactive
MIC (Staphylococcus aureus [23]): 7.8 µg/mL (≈ 15.4 µM)
IC50 (Staphylococcus aureus [24]): 2.7 µg/mL (≈ 5.32 µM)
MBC (Staphylococcus aureus [25]): 31.2 µg/mL (≈ 61.5 µM)
IC50 (Raoultella planticola [26]): 5.4 µg/mL (≈ 10.6 µM)
MFC (Candida parapsilosis [27]): 62.5 µg/mL (≈ 123 µM)
MIC (Candida albicans [28]): 3.9 µg/mL (≈ 7.68 µM)
MBC (Escherichia coli [29]): 31.2 µg/mL (≈ 61.5 µM)
MFC (Candida albicans [30]): inactive
MFC (Candida albicans [31]): 31.2 µg/mL (≈ 61.5 µM)
MBC (Bacillus subtilis [32]): 31.2 µg/mL (≈ 61.5 µM)
MIC (Candida albicans [33]): 62.5 µg/mL (≈ 123 µM)
MFC ([Candida] aaseri [34]): 62.5 µg/mL (≈ 123 µM)
MIC (Bacillus subtilis [35]): 31.2 µg/mL (≈ 61.5 µM)
MIC (Staphylococcus aureus [36]): 15.6 µg/mL (≈ 30.7 µM)
IC50 (Bacillus subtilis [37]): 21.6 µg/mL (≈ 42.6 µM)
MFC (Candida albicans [38]): 7.8 µg/mL (≈ 15.4 µM)
MFC (Candida albicans [39]): 15.6 µg/mL (≈ 30.7 µM)
MFC (Candida albicans [40]): inactive
MBC (Raoultella planticola [41]): 31.2 µg/mL (≈ 61.5 µM)
MIC (Candida albicans [42]): inactive
IC50 (Staphylococcus aureus [43]): 10.8 µg/mL (≈ 21.3 µM)
MIC (Pichia sporocuriosa [44]): 15.6 µg/mL (≈ 30.7 µM)
MIC (Candida albicans [45]): 7.8 µg/mL (≈ 15.4 µM)
MIC (Candida albicans [46]): inactive
MIC (Pseudomonas aeruginosa [47]): 15.6 µg/mL (≈ 30.7 µM)
